Patent US20250213707A1, “COMPOUND FOR INCREASING EFFICACY OF ONCOLYTIC VIRUSES” (ABLEVIA BIOTECH GMBH, priority 2022, published 2025)

How the values were obtained:
[1] = test system: polyclonal antibody ab6982; assay: Epitope mapping of polyclonal antibody ab6982 against cyclic peptides of Ad5 fiber and hexon (peptide array); type: binding, rabbits
Text: Polyclonal antibody ab6982 (Abcam) was generated by immunizing rabbits with purified AdV. It reacts with all capsid proteins of Ad5 including hexon, fiber and penton. It was shown that the antibody neutralizes Ad5 infection in a bioassay at 1000 adenovirus 5 particles/ml, a 50% inactivation of the adenovirus can be achieved at a 1/25,000 dilution of the antibody. In order to identify epitopic regions that could contain peptides for ab6982 paratope binding, the antibody was mapped against the sequences of fiber (NCBI Reference Sequence: AP 000226.1) and hexon protein (GenBank: BAG48782.1). […] The binding signal of this antibody to the array yielded several peptides that were aligned and clustered against the sequence of the protein. The peptide clusters were named cluster1-7 (fiber protein) and clusters8-16 (hexon protein) according to their ranked order of cyclic peptide hits (i.e. cluster contains the strongest binders, cluster2 the second strongest etc.). Below are the aligments of the corresponding peptides that bind to polyclonal antibody ab6982.

[2] = test system: IgG from human donors (anti-AAV antibodies); assay: Screen for anti-AAV antibodies in human sera, 2452 linear 15-amino-acid AAV peptides on microarrays (Table 1); type: binding; set-up: key to group I: X: the deduplicated aggregate of the respective top 10 peptide hits for each donor was compiled and designated as group I; key to group II: X: the deduplicated aggregate of the respective top 25 peptide hits for each donor was compiled and designated as group II; key to group III: X: the deduplicated aggregate of the respective top 50 peptide hits for each donor was compiled and designated as group III; conditions: human donor IgG binding to linear 15-amino-acid AAV peptides on microarray, fluorescence; for group I: membership in deduplicated aggregate of top 10 peptide hits for each donor; for group II: membership in deduplicated aggregate of top 25 peptide hits for each donor; for group III: membership in deduplicated aggregate of top 50 peptide hits for each donor
How it was run: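 Protein G-purified IgG from human donor blood incubated with microarrays of 2452 linear 15-mer peptides from 16 AAVs; binding read by fluorescence. Background-subtracted signals ranked per donor, with top 10, 25, 50 and 250 hits pooled and deduplicated into groups I-IV.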

[3] = cyclic peptides of fiber protein (clusters 1-7)
[4] = cyclic peptides of hexon protein (clusters 8-16)

Substance | antibody binding signal ranking from the microarray experiment [1, 3] | antibody binding signal ranking from the microarray experiment [1, 4] | also measured
MASHKDDEEKFFPM [SEQ ID NO: 1989] | 002 | – | group I [2]: X; group II [2]: X; group III [2]: X
SNYNKSVNVDFTVD (REGION 1..14: note = peptide derived from viral capsid protein) [SEQ ID NO: 1996] | 040 | – | group I [2]: X; group II [2]: X; group III [2]: X
NLQAANLALGETTR [SEQ ID NO: 2020] | 016 | – | group II [2]: X; group III [2]: X
SQSLDRLMNPLLDQ [SEQ ID NO: 2054] | 028 | – | group II [2]: X; group III [2]: X
THSTLDGRWSALTP (REGION 1..14: note = peptide derived from viral capsid protein) [SEQ ID NO: 2042] | 117 | – | group II [2]: X; group III [2]: X
RVSKTKTDNNNSNF [SEQ ID NO: 2049] | 178 | – | group II [2]: X; group III [2]: X
ADPPTTFNQAKLAS [SEQ ID NO: 2009] | 060 | – | group II [2]: X; group III [2]: X
EYRTTRPIGTRYLT [SEQ ID NO: 2062] | 134 | – | group II [2]: X; group III [2]: X
221 (ATALEINLEE) [compound 221] | – | 19 | –
219 (AATALEINLEEED) [compound 219] | – | 14 | –
299 (GDRTRYF) [compound 299] | – | 080 | –
273 (SEDVDIETPDTHI) [compound 273] | – | 050 | –
248 (EEEDDDNEDE) [compound 248] | – | 097 | –
269 (VDIETPDTHI) [compound 269] | – | 046 | –
224 (DEVDEQA) [compound 224] | – | 10 | –
229 (VDEQAEQ) [compound 229] | – | 20 | –
215 (LEINLEEEDD) [compound 215] | – | 08 | –
249 (EEDDDNE) [compound 249] | – | 108 | –
212 (TALEINLEEEDDD) [compound 212] | – | 05 | –
186 (NNSFLDPEYW) [compound 186] | 068 | – | –
236 (NLEEEDDDNEDEV) [compound 236] | – | 029 | –

Substance | antibody binding signal ranking from the microarray experiment [1, 3] | antibody binding signal ranking from the microarray experiment [1, 4] | also measured
185 (DPEYWNF) [compound 185] | 053 | – | –
206 (YTFSYIA) [compound 206] | 181 | – | –
281 (VDIETPDTHISYM) [compound 281] | – | 060 | –
301 (DSIGDRTRYFSMW) [compound 301] | – | 100 | –
262 (AATALEINLE) [compound 262] | – | 043 | –
179 (FLDPEYWNFR) [compound 179] | 017 | – | –
300 (DSIGDRTRYF) [compound 300] | – | 095 | –
189 (LNNSFLDPEY) [compound 189] | 114 | – | –
310 (NIGYQGF) [compound 310] | – | 187 | –
290 (YSFFRNF) [compound 290] | – | 104 | –
173 (SMSFSWD) [compound 173] | 144 | – | –
305 (NYNIGYQGFY) [compound 305] | – | 106 | –
180 (SFLDPEYWNF) [compound 180] | 018 | – | –
243 (EDDDNED) [compound 243] | – | 063 | –
241 (LEEEDDDNEDEVD) [compound 241] | – | 053 | –
255 (EVDEQAEQQK) [compound 255] | – | 030 | –
247 (DDDNEDE) [compound 247] | – | 096 | –
187 (VLLNNSFLDPEYW) [compound 187] | 088 | – | –
178 (SWDWSGH) [compound 178] | 193 | – | –
188 (EYWNFRN) [compound 188] | 113 | – | –
304 (SYKDRMYSFFRNF) [compound 304] | – | 099 | –

Substance | antibody binding signal ranking from the microarray experiment [1, 3] | antibody binding signal ranking from the microarray experiment [1, 4] | also measured
256 (DNEDEVDEQAEQQ) [compound 256] | – | 031 | –
217 (DEAATALEINLEE) [compound 217] | – | 11 | –
268 (IETPDTH) [compound 268] | – | 045 | –
183 (NNSFLDPEYWNFR) [compound 183] | 034 | – | –
289 (DRMYSFF) [compound 289] | – | 086 | –
191 (LNNSFLD) [compound 191] | 180 | – | –
205 (YINEIFA) [compound 205] | 168 | – | –
182 (LNNSFLDPEYWNF) [compound 182] | 033 | – | –
222 (INLEEEDDDN) [compound 222] | – | 23 | –
303 (DRMYSFFRNF) [compound 303] | – | 072 | –
258 (EVDEQAEQQKTHV) [compound 258] | – | 038 | –
244 (NLEEEDD) [compound 244] | – | 065 | –
275 (VLYSEDVDIETPD) [compound 275] | – | 052 | –
266 (LYSEDVDIETPDT) [compound 266] | – | 040 | –
231 (EDEVDEQAEQ) [compound 231] | – | 22 | –
295 (YIPESYKDRMYSF) [compound 295] | – | 152 | –
194 (FATSSYTFSY) [compound 194] | 043 | – | –
245 (DDNEDEV) [compound 245] | – | 078 | –
285 (EDVDIETPDT) [compound 285] | – | 070 | –
220 (EINLEEEDDD) [compound 220] | – | 15 | –
253 (EEDDDNEDEV) [compound 253] | – | 185 | –

Substance | antibody binding signal ranking from the microarray experiment [1, 3] | antibody binding signal ranking from the microarray experiment [1, 4] | also measured
259 (VDEQAEQQKTHVF) [compound 259] | – | 041 | –
193 (SSYTFSY) [compound 193] | 042 | – | –
271 (DVDIETPDTHISY) [compound 271] | – | 048 | –
293 (ESYKDRMYSF) [compound 293] | – | 127 | –
272 (VVLYSEDVDIETP) [compound 272] | – | 049 | –
230 (EDEVDEQAEQQKT) [compound 230] | – | 21 | –
254 (EEEDDDNEDEVDE) [compound 254] | – | 188 | –
288 (DRMYSFFRNF) [compound 288] | – | 072 | –
225 (EDDDNEDEVDEQA) [compound 225] | – | 12 | –
287 (IETPDTHISYMP) [compound 287] | – | 159 | –
274 (ETPDTHI) [compound 274] | – | 051 | –
265 (LYSEDVDIET) [compound 265] | – | 039 | –
291 (IPESYKDRMYSFF) [compound 291] | – | 107 | –
282 (PKVVLYSEDVDIE) [compound 282] | – | 061 | –
233 (NEDEVDEQAEQQK) [compound 233] | – | 25 | –
203 (INEIFATSSY) [compound 203] | 110 | – | –
202 (IFATSSY) [compound 202] | 104 | – | –
292 (SYKDRMYSFF) [compound 292] | – | 120 | –
309 (FLVQMLANYNIGY) [compound 309] | – | 184 | –
